#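 Exposure lasted 48 hours, with cells grown in 96-well plates and compounds tested at five concentrations. Abbreviation: GI50, concentration required for 50% inhibition of growth. TGI: concentration producing complete growth inhibition.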
# Legend:
# Assay in all cases: DTP human tumour cell line panel, 48 h
# HL-60(TB) leukemia = tested on: HL-60(TB) leukemia
# MOLT-4 leukemia = tested on: MOLT-4 leukemia
# OVCAR-8 ovarian = tested on: OVCAR-8 ovarian
# OVCAR-5 ovarian = tested on: OVCAR-5 ovarian
# SNB-19 CNS = tested on: SNB-19 CNS
# SK-OV-3 ovarian = tested on: SK-OV-3 ovarian
# SR leukemia = tested on: SR leukemia
# 786-0 renal = tested on: 786-0 renal
# NCI-H522 lung = tested on: NCI-H522 lung
# HOP-92 NSCLC = tested on: HOP-92 NSCLC
# COLO 205 colon = tested on: COLO 205 colon
# RPMI-8226 leukemia = tested on: RPMI-8226 leukemia
# HCT-116 colon = tested on: HCT-116 colon
# UACC-62 melanoma = tested on: UACC-62 melanoma
# SF-268 CNS = tested on: SF-268 CNS
# U251 CNS = tested on: U251 CNS
# CAKI-1 renal = tested on: CAKI-1 renal
# A549 NSCLC = tested on: A549 NSCLC
# HCT-15 colon = tested on: HCT-15 colon
# MCF7 breast = tested on: MCF7 breast
# MDA-MB-435 = tested on: MDA-MB-435
# SF-539 CNS = tested on: SF-539 CNS
# ACHN renal = tested on: ACHN renal
# NCI-H23 lung = tested on: NCI-H23 lung
# K-562 leukemia = tested on: K-562 leukemia
# MALME-3M melanoma = tested on: MALME-3M melanoma
# SW-620 colon = tested on: SW-620 colon
# KM12 colon = tested on: KM12 colon
# UACC-257 melanoma = tested on: UACC-257 melanoma
# NCI-H460 lung = tested on: NCI-H460 lung
# CCRF-CEM leukemia = tested on: CCRF-CEM leukemia
# DU-145 prostate = tested on: DU-145 prostate
# SNB-75 CNS = tested on: SNB-75 CNS
# HCC-2998 colon = tested on: HCC-2998 colon
# UO-31 renal = tested on: UO-31 renal
# MDA-MB-231 breast = tested on: MDA-MB-231 breast
# SF-295 CNS = tested on: SF-295 CNS
# HS 578T breast = tested on: HS 578T breast
# OVCAR-4 ovarian = tested on: OVCAR-4 ovarian
# T-47D breast = tested on: T-47D breast
# TK-10 renal = tested on: TK-10 renal
# SK-MEL-2 melanoma = tested on: SK-MEL-2 melanoma
# SN12C renal = tested on: SN12C renal
# SK-MEL-28 melanoma = tested on: SK-MEL-28 melanoma
# LOX IMVI melanoma = tested on: LOX IMVI melanoma
# HOP-62 NSCLC = tested on: HOP-62 NSCLC
# IGROV1 ovarian = tested on: IGROV1 ovarian
# BT-549 breast = tested on: BT-549 breast
# M14 melanoma = tested on: M14 melanoma
# RXF 393 renal = tested on: RXF 393 renal
# PC-3 prostate = tested on: PC-3 prostate
# NCI-H226 lung = tested on: NCI-H226 lung
# SK-MEL-5 melanoma = tested on: SK-MEL-5 melanoma
# NCI/ADR-RES ovarian = tested on: NCI/ADR-RES ovarian
# OVCAR-3 ovarian = tested on: OVCAR-3 ovarian
# A498 renal = tested on: A498 renal
# HT29 colon = tested on: HT29 colon
structure (smiles),measurement,setting,value
CNCC1CCn2c(c(C3=C(c4cn(C)c5ccccc45)C(=O)NC3=O)c3ccccc32)C1 (centres undefined),GI50,HL-60(TB) leukemia,3.7 µM
same,TGI,HL-60(TB) leukemia,8.61 µM
same,GI50,MOLT-4 leukemia,1.87 µM
same,TGI,MOLT-4 leukemia,8.74 µM
same,GI50,OVCAR-8 ovarian,3.87 µM
same,TGI,OVCAR-8 ovarian,10.4 µM
same,GI50,OVCAR-5 ovarian,3.07 µM
same,TGI,OVCAR-5 ovarian,20.9 µM
same,GI50,SNB-19 CNS,4.58 µM
same,TGI,SNB-19 CNS,16.3 µM
same,GI50,SK-OV-3 ovarian,5.18 µM
same,TGI,SK-OV-3 ovarian,16.4 µM
same,GI50,SR leukemia,1.79 µM
same,TGI,SR leukemia,8.78 µM
same,GI50,786-0 renal,4.88 µM
same,TGI,786-0 renal,11 µM
same,GI50,NCI-H522 lung,3.09 µM
same,TGI,NCI-H522 lung,6.49 µM
same,GI50,HOP-92 NSCLC,0.13 µM
same,TGI,HOP-92 NSCLC,8.64 µM
same,GI50,COLO 205 colon,1.47 µM
same,TGI,COLO 205 colon,4.77 µM
same,GI50,RPMI-8226 leukemia,3.85 µM
same,TGI,RPMI-8226 leukemia,9.86 µM
same,GI50,HCT-116 colon,1.82 µM
same,TGI,HCT-116 colon,5.56 µM
same,GI50,UACC-62 melanoma,3.16 µM
same,TGI,UACC-62 melanoma,6.48 µM
same,GI50,SF-268 CNS,4.17 µM
same,TGI,SF-268 CNS,8.97 µM
same,GI50,U251 CNS,2.64 µM
same,TGI,U251 CNS,5.91 µM
same,GI50,CAKI-1 renal,3.68 µM
same,TGI,CAKI-1 renal,9.28 µM
same,GI50,A549 NSCLC,3.16 µM
same,TGI,A549 NSCLC,10.6 µM
same,GI50,HCT-15 colon,5.04 µM
same,TGI,HCT-15 colon,16.5 µM
same,GI50,MCF7 breast,1.74 µM
same,TGI,MCF7 breast,5.17 µM
same,GI50,MDA-MB-435,2.75 µM
same,TGI,MDA-MB-435,5.94 µM
same,GI50,SF-539 CNS,3.69 µM
same,TGI,SF-539 CNS,7.21 µM
same,GI50,ACHN renal,3.62 µM
same,TGI,ACHN renal,13.1 µM
same,GI50,NCI-H23 lung,2.99 µM
same,TGI,NCI-H23 lung,8.03 µM
same,GI50,K-562 leukemia,3.29 µM
same,TGI,K-562 leukemia,8.41 µM
same,GI50,MALME-3M melanoma,2.13 µM
same,TGI,MALME-3M melanoma,5.52 µM
same,GI50,SW-620 colon,2.04 µM
same,TGI,SW-620 colon,5.6 µM
same,GI50,KM12 colon,3.41 µM
same,TGI,KM12 colon,7.41 µM
same,GI50,UACC-257 melanoma,3.56 µM
same,TGI,UACC-257 melanoma,7.55 µM
same,GI50,NCI-H460 lung,2.91 µM
same,TGI,NCI-H460 lung,6.55 µM
same,GI50,CCRF-CEM leukemia,2.89 µM
same,TGI,CCRF-CEM leukemia,12 µM
same,GI50,DU-145 prostate,3.76 µM
same,TGI,DU-145 prostate,8.6 µM
same,GI50,SNB-75 CNS,0.972 µM
same,TGI,SNB-75 CNS,4.66 µM
same,GI50,HCC-2998 colon,3.76 µM
same,TGI,HCC-2998 colon,7.77 µM
same,GI50,UO-31 renal,2.6 µM
same,TGI,UO-31 renal,6.49 µM
same,GI50,MDA-MB-231 breast,2.54 µM
same,TGI,MDA-MB-231 breast,7.27 µM
same,GI50,SF-295 CNS,2.49 µM
same,TGI,SF-295 CNS,6.38 µM
same,GI50,HS 578T breast,2.9 µM
same,TGI,HS 578T breast,8.7 µM
same,GI50,OVCAR-4 ovarian,4.17 µM
same,TGI,OVCAR-4 ovarian,15.5 µM
same,GI50,T-47D breast,3.27 µM
same,TGI,T-47D breast,7.27 µM
same,GI50,TK-10 renal,2.78 µM
same,TGI,TK-10 renal,6.34 µM
same,GI50,SK-MEL-2 melanoma,3.33 µM
same,TGI,SK-MEL-2 melanoma,7.07 µM
same,GI50,SN12C renal,2.87 µM
same,TGI,SN12C renal,9.28 µM
same,GI50,SK-MEL-28 melanoma,3.78 µM
same,TGI,SK-MEL-28 melanoma,7.28 µM
same,GI50,LOX IMVI melanoma,3.84 µM
same,TGI,LOX IMVI melanoma,7.4 µM
same,GI50,HOP-62 NSCLC,3.62 µM
same,TGI,HOP-62 NSCLC,9.99 µM
same,GI50,IGROV1 ovarian,4.14 µM
same,TGI,IGROV1 ovarian,9.9 µM
same,GI50,BT-549 breast,4.36 µM
same,TGI,BT-549 breast,10.9 µM
same,GI50,M14 melanoma,3.05 µM
same,TGI,M14 melanoma,6.78 µM
same,GI50,RXF 393 renal,3.09 µM
same,TGI,RXF 393 renal,6.78 µM
same,GI50,PC-3 prostate,2.39 µM
same,TGI,PC-3 prostate,8.79 µM
same,GI50,NCI-H226 lung,3.23 µM
same,TGI,NCI-H226 lung,14.2 µM
same,GI50,SK-MEL-5 melanoma,3.88 µM
same,TGI,SK-MEL-5 melanoma,7.97 µM
same,GI50,NCI/ADR-RES ovarian,10.2 µM
same,TGI,NCI/ADR-RES ovarian,25 µM
same,GI50,OVCAR-3 ovarian,3.98 µM
same,TGI,OVCAR-3 ovarian,8.97 µM
same,GI50,A498 renal,5.65 µM
same,TGI,A498 renal,14.5 µM
same,GI50,HT29 colon,2.79 µM
same,TGI,HT29 colon,8.18 µM

# Source: PubChem BioAssay (NCI)
